The conditions of this data set: pH 8.3.

Where a name gives a salt, the structure may show the parent alone.

The text below walks through data of US4748116A, “Peptide substrates for determination of protease activity” (KabiVitrum AB, priority 1980, dated 1988).

Take `CC(C)C[C@H](NC(=O)[C@@H](NC(=O)OC(C)(C)C)C(C)C)C(=O)N[C@@H](CCCCN)C(=O)Nc1ccc2c(=O)[nH][nH]c(=O)c2c1` [XXI, Boc--Val--Leu--Lys--Isl.HCl]: the “stability of substrate” value is on record as “very stable”.
